Columns and labels:
[1] = test system: APC2, p55Cdc20, cyclins A and E, APC7, APC8; assay: Immunoblotting of APC/C subunits and other cell cycle related proteins in DAOY cells; assay type: cell-based, human; settings: control vs curcumin-treated DAOY cells, immunoblot
Experimental: Cell lysates were prepared in a buffer containing 20 mM Tris (pH 7.5), 150 mM NaCl, 1 mM EDTA, 1 mM EGTA, 0.1% Triton X-100, 2.5 mM sodium pyrophosphate, 1 mM β-glycerol phosphate, 1 mM sodium vanadate, 1 mM phenylmethylsulfonyl fluoride and 5 μg/ml of antipapain, leupeptin and pepstatin (protease inhibitor cocktail). Protein concentrations were determined by the Dc protein assay (Bio-Rad, Hercules, Calif.). Equal amounts of protein were resolved by SDS-PAGE and transferred to nitrocellulose. The membranes were blocked in 5% non-fat milk in Tris-buffered saline with 0.1% […] (TBST). Primary antibodies diluted in 5% bovine serum albumin/TBST were incubated overnight at 4° C. and HRP-conjugated secondary antibodies in 5% non-fat milk/TBST for 2 hours at room temperature. Protein bands were visualized by Enhanced Chemiluminescence Plus (GE Healthcare, Piscataway, N.J.).
Cell lysates were prepared in a buffer containing 20 mM Iris (pH 7.5), 150 mM NaCl, 1 mM EDTA, 1 mM EGTA, 0.1% Triton X-100, 2.5 mM sodium pyrophosphate, 1 mM β-glycerol phosphate, 1 mM sodium vanadate, 1 mM phenylmethylsulfonyl fluoride and 5 μg/ml of antipapain, leupeptin and pepstatin (protease inhibitor cocktail). Protein concentrations were determined by the Dc protein assay (Bio-Rad, Hercules, Calif.). Equal amounts of protein were resolved by SDS-PAGE and transferred to nitrocellulose. […]

[2] = test system: NT2 and MDCK cells; assay: Cell cycle progression after release from thymidine/nocodazole block; assay type: cell-based; settings: different concentrations of curcumin
Experimental: For analysis of cell cycle profiles after mitotic block, cells were synchronized with 2 mM thymidine for 24 hours. The block was released for 3 hours and cells were arrested in prometaphase with 100 nM nocodazole for 12 hours. For G1/S arrest, cells were synchronized for 18 hours with 2 mM thymidine, released for 9 hours, followed by a second thymidine arrest for 18 hours. The block was then released in the presence of DMSO or curcumin as indicated and the cells were processed as described above.
NT2 and MDCK cells were arrested with thymidine/nocodazole treatment. […] DNA contents were analyzed for cell cycle progression. The data shown in FIG. 7 are expressed as mean±SEM of three independent experiments.

[3] = target: T1, APC/C (Homo sapiens, UniProt P30260); assay: In vitro APC assay (ubiquitin ligase activity on cyclin B); assay type: biochemical; settings: DAOY released from G2/M block with 20 μM or 40 μM curcumin; two hours vs one hour of release
T1 construct: Cell pellets of control and curcumin-treated DAOY cells were snap frozen in liquid nitrogen; endogenous in cells; host or cells: DAOY cell lysate, 30 μg total protein
Experimental: In vitro APC assays were performed as described (Rajasekaran et al., Molecular Cancer Therapeutics 7(7); 2142-2151 (2008) using an in vitro transcribed and translated N-terminal fragment of cyclin B1 (cyclin B1-N1-102) as substrate, ^35S-methionine labeled cyclin B1-N1-102 was obtained using the TNT quick-coupled Transcription/Translation system (Promega, Madison, Wis.). Cell pellets of control and curcumin-treated DAOY cells were snap frozen in liquid nitrogen. The cell pellets were resuspended in an ice-cold hypotonic buffer (20 mM Hepes pH 7.6, 20 mM NaF, 1.5 mM MgCl2, 1 mM DTT, 5 mM KCl, 20 mM β-glycerophosphate, 250 μM NaVO3, 1 mM PMSF, and EDTA-free protease inhibitors) and incubated for 30 minutes on ice. The lysates were briefly homogenized and cleared by a 1 hour centrifugation at 13,000 rpm in a micro centrifuge. For the assay, 30 μg of total protein were added to reaction buffer containing 20 mM Tris pH 7.5, 20 mM NaCl, 5 mM MgCl2, 5 mM ATP-γ-S, 20 μg/ml MG-132, 0.5 μg UbcH10, 20 μM ubiquitin, 1 μm ubiquitin aldehyde, protease inhibitor, and 2 μl of in vitro translated ^35S-cyclin B1-N1-102 and incubated at 37° C. for 60 minutes. The reactions were stopped by adding sample buffer and proteins were separated by SDS-PAGE on a 4-15% gradient gel. To visualize the bands, the gel was incubated and enhanced with salicylate, dried, and then subjected to autoradiography. […]

[4] = test system: medulloblastoma; settings: medulloblastoma in vivo model; cited from earlier work

APC activity [3]: reduced
Compound: COc1cc(/C=C/C(=O)CC(=O)/C=C/c2ccc(O)c(OC)c2)ccc1O [Curcumin, (E,E)-1,7-bis(4-hydroxy-3-methoxyphenyl)-1,6-heptadiene-3,5-dion]
expression of cyclin A and E [1]: No noticeable changes
levels of APC2 and p55Cdc20 [1]: comparable in control and curcumin-treated cells
mitotic progression after release from mitotic block [2]: selectively blocks mitotic progression in different cell lines with phosphorylated APC3/Cdc27
medulloblastoma growth [4]: can inhibit medulloblastoma growth
